According to article PMC7932537, “Quantitative profiling of protease specificity” (PLoS Computational Biology, 2021):

Assays:
MMP-2 = experiment: Substrate phage display with NGS: relative probability (RP) of P3-P1' tetramer clusters; assay type: biochemical, human; details: for relative probability (RP) of matching tetramer: P3-P1' tetramer matching the MS detected MMP2 cleavage sequence, RP_above_4.5; for corresponding MMP2 relative probability (RP): MMP9 tetramers from unique substrates, RP of same tetramer for MMP2; for normalized RP - MMP2: normalized RP of matching tetramer; for MMP2 relative probability (RP): MMP2 tetramers from unique substrates, unrounded values
MMP-9 = experiment: as above; assay type: biochemical, human; details: for MMP9 relative probability (RP): MMP9 tetramers from unique substrates, unrounded values; for normalized RP - MMP9: normalized RP of matching tetramer; for corresponding MMP9 relative probability (RP): MMP2 tetramers from unique substrates, RP of same tetramer for MMP9
[1] = MMP2, RP of matching P3-P1' tetramer, common set of MMP2-9 selectome, RP above KL threshold
[2] = RP of matching tetramer, common MMP2-9 selectome
[3] = MMP9, RP of matching P3-P1' tetramer, common set of MMP2-9 selectome
[4] = MMP9, RP of the P3-P1' tetramer matching the MS detected cleavage, RP above 4.7, substrate phage display with NGS
[5] = RP of matching tetramer, common MMP2-9 selectome, RP above KL threshold
[6] = RP of the P3-P1' tetramer cluster contained in the hexamer, 200 nM MMP-2, 2 h, 37°C, two rounds of selection
[7] = MMP9, RP of the P3-P1' tetramer contained in the hexamer substrate (substrate phage display, NGS)
[8] = RP of the P3-P1' tetramer, MMP2 substrate phage display/NGS, tetramers of physiologic MEROPS substrates common to MMP2 and MMP9
[9] = RP of the P3-P1' tetramer, MMP9 substrate phage display/NGS, tetramers of physiologic MEROPS substrates common to MMP2 and MMP9
[10] = RP of matching tetramer, unique part of MMP2 selectome, RP above KL threshold
[11] = RP of matching tetramer, unique part of MMP2 selectome
[12] = RP according to MMP2, P3-P1' tetramer of unique physiologic MMP2 substrates from MEROPS

**Q.** For AINI, which “relative probability (RP) (acc.to MMP2)” value (MMP-2; [1]) is on record?
**A.** Its value is 8.5.

**Q.** What about the “relative probability (RP) of matching tetramer” value (MMP-2) of the same substance?
**A.** The value was 8.5.

**Q.** And the “relative probability (RP) (acc.to MMP2)” value (MMP-2; [2])?
**A.** Its value is 8.5.

**Q.** And the “relative probability (RP) (acc.to MMP9)” value (MMP-9; [3])?
**A.** The value was 14.08.

**Q.** What about the “relative probability (RP)” value (MMP-9; [4]) of the same substance?
**A.** Its value is 14.08.

**Q.** What about the “relative probability (RP) (acc.to MMP9)” value (MMP-9; [5]) of the same substance?
**A.** The value was 14.08.

**Q.** PEPAAL was tested. Which “relative probability (RP)” value (MMP-2; [6]) did it give?
**A.** Its value is 35.8015.

**Q.** What about the “relative probability (RP)” value (MMP-9; [7]) of the same substance?
**A.** Its value is 47.6262.

**Q.** With PQPSEL as the substance, how does the “relative probability (RP)” value (MMP-2; [6]) read?
**A.** The value was 31.5156.

**Q.** And the “relative probability (RP)” value (MMP-9; [7])?
**A.** The value was 41.3266.

**Q.** What does the source list for AAGV?
**A.** relative probability (RP) (acc.to MMP2) (MMP-2; [8]): 0.76; relative probability (RP) (acc.to MMP9) (MMP-9; [9]): 0.05

**Q.** With PPGA as the substance, how does the “relative probability (RP) (acc.to MMP2)” value (MMP-2; [8]) read?
**A.** The value was 0.

**Q.** And the “relative probability (RP) (acc.to MMP9)” value (MMP-9; [9])?
**A.** Its value is 0.07.

**Q.** What does the source list for PGMI?
**A.** relative probability (RP) (acc.to MMP2) (MMP-2; [1]): 17.65; relative probability (RP) of matching tetramer (MMP-2): 17.65; relative probability (RP) (acc.to MMP2) (MMP-2; [2]): 17.65; relative probability (RP) (acc.to MMP9) (MMP-9; [3]): 13.36; relative probability (RP) (MMP-9; [4]): 13.36; relative probability (RP) (acc.to MMP9) (MMP-9; [5]): 13.36

**Q.** For PLQLQT, which “relative probability (RP)” value (MMP-2; [6]) is on record?
**A.** The value was 30.1017.

**Q.** What about the “relative probability (RP)” value (MMP-9; [7]) of the same substance?
**A.** The value was 45.7856.

**Q.** What does the source list for EMRL?
**A.** corresponding MMP2 relative probability (RP) (MMP-2): 11.559; MMP9 relative probability (RP) (MMP-9): 0.2922

**Q.** RMMREL was tested. Which “relative probability (RP)” value (MMP-2; [6]) did it give?
**A.** The value was 19.1524.

**Q.** And the “relative probability (RP)” value (MMP-9; [7])?
**A.** Its value is 21.3182.

**Q.** What does the source list for IAFL?
**A.** relative probability (RP) (acc.to MMP2) (MMP-2; [1]): 22.55; relative probability (RP) of matching tetramer (MMP-2): 22.55; relative probability (RP) (acc.to MMP9) (MMP-9; [3]): 10.97

**Q.** With PKALPY as the substance, how does the “relative probability (RP)” value (MMP-2; [6]) read?
**A.** Its value is 34.4858.

**Q.** What about the “relative probability (RP)” value (MMP-9; [7]) of the same substance?
**A.** Its value is 48.3581.

**Q.** PPGK was tested. Which “relative probability (RP) (acc.to MMP2)” value (MMP-2; [8]) did it give?
**A.** The value was 0.14.

**Q.** And the “relative probability (RP) (acc.to MMP9)” value (MMP-9; [9])?
**A.** Its value is 0.

**Q.** Which “relative probability (RP)” value (MMP-2; [6]) does the source give for GPKGFR here?
**A.** The value was 30.2308.

**Q.** And the “relative probability (RP)” value (MMP-9; [7])?
**A.** Its value is 42.0715.

**Q.** Which results are given for AKAQ?
**A.** corresponding MMP2 relative probability (RP) (MMP-2): 5.884; MMP9 relative probability (RP) (MMP-9): 0.8414

**Q.** Which results are given for VPQEWR?
**A.** relative probability (RP) (MMP-2; [6]): 10.5981; relative probability (RP) (MMP-9; [7]): 10.1914

**Q.** LAYL was tested. Which “relative probability (RP) of matching tetramer” value (MMP-2) did it give?
**A.** Its value is 25.34.

**Q.** And the “relative probability (RP) (acc.to MMP2)” value (MMP-2; [10])?
**A.** Its value is 25.34.

**Q.** What about the “normalized RP - MMP2” value (MMP-2; unique part of MMP2 selectome) of the same substance?
**A.** The value was 0.6939.

**Q.** What about the “relative probability (RP) (acc.to MMP9)” value (MMP-9; [11]) of the same substance?
**A.** The value was 2.51.

**Q.** And the “normalized RP - MMP9” value (MMP-9; unique part of MMP2 selectome)?
**A.** Its value is 0.04792.

**Q.** With MSAF as the substance, how does the “MMP2 relative probability (RP)” value (MMP-2) read?
**A.** Its value is 20.9521.

**Q.** And the “Relative probability (RP) rank” value (MMP-2; [12])?
**A.** The value was 1585.

**Q.** What about the “relative probability (RP)” value (MMP-2; [12]) of the same substance?
**A.** The value was 20.95.

**Q.** And the “corresponding MMP9 relative probability (RP)” value (MMP-9)?
**A.** Its value is 1.271.

**Q.** ITGL was tested. Which “MMP2 relative probability (RP)” value (MMP-2) did it give?
**A.** The value was 4.832.

**Q.** And the “Relative probability (RP) rank” value (MMP-2; [12])?
**A.** The value was 7648.

**Q.** And the “relative probability (RP)” value (MMP-2; [12])?
**A.** The value was 4.83.

**Q.** And the “corresponding MMP9 relative probability (RP)” value (MMP-9)?
**A.** The value was 0.3587.

**Q.** Which results are given for GEPFEL?
**A.** relative probability (RP) (MMP-2; [6]): 15.9169; relative probability (RP) (MMP-9; [7]): 44.9497

**Q.** With SAAQPL as the substance, how does the “relative probability (RP)” value (MMP-2; [6]) read?
**A.** Its value is 14.4283.

**Q.** And the “relative probability (RP)” value (MMP-9; [7])?
**A.** The value was 28.189.

**Q.** How did the “relative probability (RP) (acc.to MMP2)” value (MMP-2; [1]) turn out when PNSM was run?
**A.** Its value is 14.95.

**Q.** And the “relative probability (RP) of matching tetramer” value (MMP-2)?
**A.** The value was 14.95.

**Q.** What about the “relative probability (RP) (acc.to MMP2)” value (MMP-2; [2]) of the same substance?
**A.** The value was 14.95.

**Q.** And the “relative probability (RP) (acc.to MMP9)” value (MMP-9; [3])?
**A.** The value was 27.58.

**Q.** What about the “relative probability (RP)” value (MMP-9; [4]) of the same substance?
**A.** Its value is 27.58.

**Q.** What about the “relative probability (RP) (acc.to MMP9)” value (MMP-9; [5]) of the same substance?
**A.** The value was 27.58.

**Q.** Which results are given for SKYL?
**A.** relative probability (RP) (acc.to MMP2) (MMP-2; [8]): 4.49; relative probability (RP) (acc.to MMP9) (MMP-9; [9]): 0.25

**Q.** What does the source list for PGGV?
**A.** corresponding MMP2 relative probability (RP) (MMP-2): 10.6032; MMP9 relative probability (RP) (MMP-9): 2.434

**Q.** Which results are given for VSSL?
**A.** avg_RP (MMP-2; MMP2 - no binning, average relative probability of the P3-P1' tetramer, redundant tetramers have been averaged out): 29.0891; relative probability (RP) (acc.to MMP2) (MMP-2; [1]): 29.09; relative probability (RP) of matching tetramer (MMP-2): 29.09; relative probability (RP) (acc.to MMP9) (MMP-9; [3]): 17.98

**Q.** How did the “relative probability (RP) (acc.to MMP2)” value (MMP-2; [2]) turn out when PFGV was run?
**A.** Its value is 6.82.

**Q.** And the “relative probability (RP)” value (MMP-9; [4])?
**A.** Its value is 38.95.

**Q.** What about the “relative probability (RP) (acc.to MMP9)” value (MMP-9; [5]) of the same substance?
**A.** The value was 38.95.

**Q.** Which results are given for SPPAAI?
**A.** relative probability (RP) (MMP-2; [6]): 32.0972; relative probability (RP) (MMP-9; [7]): 46.1642

**Q.** Which “relative probability (RP)” value (MMP-2; [6]) does the source give for INPQGL here?
**A.** Its value is 33.5241.

**Q.** What about the “relative probability (RP)” value (MMP-9; [7]) of the same substance?
**A.** Its value is 47.8621.

**Q.** What does the source list for APGN?
**A.** relative probability (RP) (acc.to MMP2) (MMP-2; [8]): 3.62; relative probability (RP) (acc.to MMP9) (MMP-9; [9]): 2.38

**Q.** For PLRQIG, which “relative probability (RP)” value (MMP-2; [6]) is on record?
**A.** The value was 11.8624.

**Q.** What about the “relative probability (RP)” value (MMP-9; [7]) of the same substance?
**A.** The value was 29.0862.

**Q.** For PRKQ, which “corresponding MMP2 relative probability (RP)” value (MMP-2) is on record?
**A.** Its value is 15.8695.

**Q.** What about the “MMP9 relative probability (RP)” value (MMP-9) of the same substance?
**A.** The value was 2.4663.

**Q.** Which results are given for GSAL?
**A.** relative probability (RP) of matching tetramer (MMP-2): 9.27; relative probability (RP) (acc.to MMP2) (MMP-2; [10]): 9.27; normalized RP - MMP2 (MMP-2; unique part of MMP2 selectome): 0.2538; relative probability (RP) (acc.to MMP9) (MMP-9; [11]): 2.8; normalized RP - MMP9 (MMP-9; unique part of MMP2 selectome): 0.05346

**Q.** For PSNMEG, which “relative probability (RP)” value (MMP-2; [6]) is on record?
**A.** Its value is 32.3748.

**Q.** And the “relative probability (RP)” value (MMP-9; [7])?
**A.** The value was 45.3884.
